From the NIST ThermoML archive (doi:10.1016/j.fluid.2012.06.028)

Assay: xn = mol fraction of the nth substance listed
Settings: Liquid, Vibrating tube method

CCCCCCCCCCCCCC [tetradecane] + CCCCCCCCCC
mass density [kg/m3]
Settings	1000 kPa	2000 kPa	3000 kPa	4000 kPa	5000 kPa	6000 kPa	7000 kPa	8000 kPa	9000 kPa	10000 kPa
295 K, x2 = 0.5	746.3	–	747.6	748.3	749	749.7	–	751.1	751.7	–
295 K, x2 = 0.75	739.2	739.9	740.7	741.4	742.1	742.8	743.5	744.2	745	745.7
295.5 K, x2 = 0.25	753.2	753.9	754.6	755.3	756	756.7	757.4	758	758.7	759.4
